biological target: T1, human LPA1 (Homo sapiens, UniProt Q92633); experiment: LPA1 calcium flux assay; format: cell-based; details: human LPA1 expressing CHO cells, stimulated with 10 nM LPA; read-out: HLPA1 Ca Flux IC50
T1 construct: the full-length cDNA for human LPA1 was obtained by PCR of the reverse transcription reaction; expressed in transfected cells
Experimental: Establishment of a CHO Cell Line Stably Expressing Human LPA1
A 1.1 kb cDNA encoding the human LPA1 receptor was cloned from human lung.
Human lung RNA (Clontech Laboratories, Inc. USA) was reverse transcribed using the RETROscript kit (Ambion, Inc.) and the full-length cDNA for human LPA1 was obtained by PCR of the reverse transcription reaction. The nucleotide sequence of the cloned human LPA1 was determined by sequencing and confirmed to be identical to the published human LPA1 sequence (An et al. Biochem. Biophys. Res. Commun. 231:619 (1997). The cDNA was cloned into the pcDNA5/FRT expression plasmid and transfected in CHO cells using lipofectamine 2000 (Invitrogen Corp., USA). Clones stably expressing human LPA1 were selected using hygromycin and identified as cells that show Ca-influx in response to LPA.
LPA1 and LPA3 Calcium Flux Assays
Human LPA1 or LPA3 expressing CHO cells are seeded at 20,000-45,000 cells per well in a 96-well poly-D-lysine coated plate one or two days before the assay. Prior to the assay, the cells are washed once with PBS and then cultured in serum-free media overnight. On the day of the assay, a calcium indicator dye (Calcium 4, Molecular Devices) in assay buffer (HBSS with Ca^2+ and Mg^2+ and containing 20 mM Hepes and 0.3% fatty-acid free human serum albumin) is added to each well and incubation continued for 1 hour at 37° C. 10 μl of test compounds in 2.5% DMSO are added to the cells and incubation continued at room temperature for 30 minutes. Cells are the stimulated by the addition of 10 nM LPA and intracellular Ca^2+ measured using the Flexstation 3 (Molecular Devices). IC50s are determined using Graphpad prism analysis of drug titration curves.

T1 sequence (Q92633 whole entry): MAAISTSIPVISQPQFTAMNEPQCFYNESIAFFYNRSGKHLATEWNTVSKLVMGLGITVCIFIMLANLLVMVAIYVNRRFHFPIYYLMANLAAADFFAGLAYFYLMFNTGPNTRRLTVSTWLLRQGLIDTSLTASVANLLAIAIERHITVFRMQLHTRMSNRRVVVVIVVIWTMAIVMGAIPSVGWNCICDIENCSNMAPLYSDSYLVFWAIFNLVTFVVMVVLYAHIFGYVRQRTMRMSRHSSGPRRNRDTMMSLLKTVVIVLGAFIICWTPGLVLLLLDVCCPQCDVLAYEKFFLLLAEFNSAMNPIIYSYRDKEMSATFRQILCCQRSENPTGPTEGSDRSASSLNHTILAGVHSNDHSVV

| SMILES | IC50 |
| --- | --- |
| Cc1noc(-c2ccc(-c3ccc(CCC(=O)O)cc3)cc2)c1C(O)c1cn(Cc2ccccc2)nn1 (centres unmarked) [Compound 1-49, 3-(4′-{4-[(1-Benzyl-1H-[1,2,3]triazol-4-yl)-hydroxy-methyl]-3-methyl-isoxazol-5-yl}-biphenyl-4-yl)-propionic acid] | < 300 nM |
| Cc1noc(-c2ccc(-c3ccc(C4(C(=O)O)CC4)cc3)cc2)c1C(O)c1cn(Cc2cccc(C(F)(F)F)c2)nn1 (centres unmarked) [Compound 1-50, 1-[4′-(4-{Hydroxy-[1-(3-trifluoromethyl-benzyl)-1H-[1,2,3]triazol-4-yl]-methyl}-3-methyl-isoxazol-5-yl)-biphenyl-4-yl]-cyclopropanecarboxylic acid] | 1000 to 50000 nM |
| Cc1noc(-c2ccc(-c3ccc(CC(=O)O)cc3)cc2)c1C(O)c1cn(Cc2cccc(C(F)(F)F)c2)nn1 (centres unmarked) [Compound 1-51, [4′-(4-{Hydroxy-[1-(3-trifluoromethyl-benzyl)-1H-[1,2,3]triazol-4-yl]-methyl}-3-methyl-isoxazol-5-yl)-biphenyl-4-yl]acetic acid] | > 50000 nM |
| Cc1noc(-c2ccc(-c3ccc(CCC(=O)O)cc3)cc2)c1C(O)c1cn(Cc2cccc(C(F)(F)F)c2)nn1 (centres unmarked) [Compound 1-52, 3-[4′-(4-{Hydroxy-[1-(3-trifluoromethyl-benzyl)-1H-[1,2,3]triazol-4-yl]-methyl}-3-methyl-isoxazol-5-yl)-biphenyl-4-yl]propionic acid] | 1000 to 50000 nM |
| Cc1noc(-c2ccc(-c3ccc(C4(C(=O)O)CC4)cc3)cc2)c1C(O)c1cccc(-c2ccccc2)c1 (centres unmarked) [Compound 1-53, 1-{4′-[4-(Biphenyl-3-yl-hydroxy-methyl)-3-methyl-isoxazol-5-yl]-biphenyl-4-yl}-cyclopropanecarboxylic acid] | < 300 nM |
| Cc1noc(-c2ccc(-c3ccc(C4(C(=O)O)CC4)cc3)cc2)c1C(O)c1ccc(OCc2ccccc2)cc1 (centres unmarked) [Compound 1-54, 1-(4′-{4-[(4-Benzyloxy-phenyl)-hydroxy-methyl]-3-methyl-isoxazol-5-yl}-biphenyl-4-yl)-cyclopropanecarboxylic acid] | 1000 to 50000 nM |
| Cc1noc(-c2ccc(-c3ccc(C4(C(=O)O)CC4)cc3)cc2)c1C(O)c1cn(C(C)c2ccccc2)nn1 (centres unmarked) [Compound 1-55, 1-[4′-(4-{Hydroxy-[1-(1-phenyl-ethyl)-1H-[1,2,3]triazol-4-yl]-methyl}-3-methyl-isoxazol-5-yl)-biphenyl-4-yl]-cyclopropanecarboxylic acid] | < 300 nM |
| Cc1noc(-c2ccc(-c3ccc(C4(C(=O)O)CC4)cc3)cc2)c1C(O)c1cn(Cc2ccccc2C(F)(F)F)nn1 (centres unmarked) [Compound 1-56, 1-[4′-(4-{Hydroxy-[1-(2-trifluoromethyl-benzyl)-1H-[1,2,3]triazol-4-yl]-methyl}-3-methyl-isoxazol-5-yl)-biphenyl-4-yl]-cyclopropanecarboxylic acid] | 1000 to 50000 nM |
| Cc1noc(-c2ccc(-c3ccc(C4(C(=O)O)CC4)cc3)cc2)c1C(O)c1cn(Cc2cccc(Cl)c2)nn1 (centres unmarked) [Compound 1-57, 1-[4′-(4-{[1-(3-Chloro-benzyl)-1H-[1,2,3]triazol-4-yl]-hydroxy-methyl}-3-methyl-isoxazol-5-yl)-biphenyl-4-yl]-cyclopropanecarboxylic acid] | < 300 nM |
| Cc1noc(-c2ccc(-c3ccc(C4(C(=O)O)CC4)cc3)cc2)c1C(O)c1cccc(Cc2ccccc2)c1 (centres unmarked) [Compound 1-58, 1-(4′-{4-[(3-Benzyl-phenyl)-hydroxy-methyl]-3-methyl-isoxazol-5-yl}-biphenyl-4-yl)-cyclopropanecarboxylic acid] | < 300 nM |
| Cc1noc(-c2ccc(-c3ccc(C4(C(=O)O)CC4)cc3)cc2)c1C(O)c1cncc(Cc2ccccc2)c1 (centres unmarked) [Compound 1-59, 1-(4′-{4-[(5-Benzyl-pyridin-3-yl)-hydroxy-methyl]-3-methyl-isoxazol-5-yl}-biphenyl-4-yl)-cyclopropanecarboxylic acid] | < 300 nM |
| Cc1noc(-c2ccc(-c3ccc(C4(CC(=O)O)CC4)cc3)cc2)c1C(O)c1nnc(Cc2ccccc2)o1 (centres unmarked) [Compound 1-60, [1-(4′-{4-[(5-Benzyl-[1,3,4]oxadiazol-2-yl)-hydroxy-methyl]-3-methyl-isoxazol-5-yl}-biphenyl-4-yl)-cyclopropyl]-acetic acid] | < 300 nM |
| Cc1noc(-c2ccc(-c3ccc(C4(C(=O)O)CC4)cc3)cc2)c1C(O)c1cn(Cc2ccccc2Cl)nn1 (centres unmarked) [Compound 1-61, 1-[4′-(4-{[1-(2-Chloro-benzyl)-1H-[1,2,3]triazol-4-yl]-hydroxy-methyl}-3-methyl-isoxazol-5-yl)-biphenyl-4-yl]-cyclopropanecarboxylic acid] | < 300 nM |
| Cc1noc(-c2ccc(-c3ccc(C4(C(=O)O)CC4)cc3)cc2)c1C(O)c1cn(Cc2ccc(Cl)cc2)nn1 (centres unmarked) [Compound 1-62, 1-[4′-(4-{[1-(4-Chloro-benzyl)-1H-[1,2,3]triazol-4-yl]-hydroxy-methyl}-3-methyl-isoxazol-5-yl)-biphenyl-4-yl]-cyclopropanecarboxylic acid] | < 300 nM |
| Cc1noc(-c2ccc(-c3ccc(C4(C(=O)O)CC4)cc3)cc2)c1[C@@H](O)c1cn(Cc2ccccc2Cl)nn1 [Compound 1-63, 1-[4′-(4-{(R)-[1-(2-Chloro-benzyl)-1H-[1,2,3]triazol-4-yl]-hydroxy-methyl}-3-methyl-isoxazol-5-yl)-biphenyl-4-yl]-cyclopropanecarboxylic acid] | < 300 nM |
| Cc1noc(-c2ccc(-c3ccc(C4(C(=O)O)CC4)cc3)cc2)c1C(O)c1cn(Cc2ccc(Cl)c(Cl)c2)nn1 (centres unmarked) [Compound 1-64, 1-[4′-(4-{[1-(3,4-Dichloro-benzyl)-1H-[1,2,3]triazol-4-yl]-hydroxy-methyl}-3-methyl-isoxazol-5-yl)-biphenyl-4-yl]-cyclopropanecarboxylic acid] | < 300 nM |
| Cc1noc(-c2ccc(-c3ccc(CC(=O)O)cc3)cc2)c1C(O)c1cn(Cc2ccc(Cl)c(Cl)c2)nn1 (centres unmarked) [Compound 1-65, [4′-(4-{[1-(3,4-Dichloro-benzyl)-1H-[1,2,3]triazol-4-yl]-hydroxy-methyl}-3-methyl-isoxazol-5-yl)-biphenyl-4-yl]-acetic acid] | 1000 to 50000 nM |
| Cc1noc(-c2ccc(-c3ccc(C4(C(=O)O)CC4)cc3)cc2)c1[C@@H](O)c1cn([C@H](C)c2ccccc2)nn1 [Compound 1-67, 1-[4′-(4-{(R)-Hydroxy-[1-((R)-1-phenyl-ethyl)-1H-[1,2,3]triazol-4-yl]-methyl}-3-methyl-isoxazol-5-yl)-biphenyl-4-yl]-cyclopropanecarboxylic acid] | < 300 nM |
| Cc1noc(-c2ccc(-c3ccc(C4(C(=O)O)CC4)cc3)cc2)c1Nc1cccc(-c2ccccc2)n1 [Compound 1-68, 1-{4′-[3-Methyl-4-(6-phenyl-pyridin-2-ylamino)-isoxazol-5-yl]-biphenyl-4-yl}-cyclopropanecarboxylic acid] | < 300 nM |
| Cc1noc(-c2ccc(-c3ccc(C4(C(=O)O)CC4)cc3)cc2)c1C(O)c1cccc(Cc2ccccc2)n1 (centres unmarked) [Compound 1-69, 1-(4′-{4-[(6-Benzyl-pyridin-2-yl)-hydroxy-methyl]-3-methyl-isoxazol-5-yl}-biphenyl-4-yl)-cyclopropanecarboxylic acid] | < 300 nM |
| Cc1ccccc1Cn1cc(C(O)c2c(C)noc2-c2ccc(-c3ccc(C4(C(=O)O)CC4)cc3)cc2)nn1 (centres unmarked) [Compound 1-70, 1-[4′-(4-{Hydroxy-[1-(2-methyl-benzyl)-1H-[1,2,3]triazol-4-yl]-methyl}-3-methyl-isoxazol-5-yl)-biphenyl-4-yl]-cyclopropanecarboxylic acid] | < 300 nM |
| Cc1noc(-c2ccc(-c3ccc(C4(C(=O)O)CC4)cc3)cc2)c1C(O)c1cn(Cc2c(F)cccc2Cl)nn1 (centres unmarked) [Compound 1-71, 1-[4′-(4-{[1-(2-Chloro-6-fluoro-benzyl)-1H-[1,2,3]triazol-4-yl]-hydroxy-methyl}-3-methyl-isoxazol-5-yl)-biphenyl-4-yl]-cyclopropanecarboxylic acid] | < 300 nM |
| Cc1noc(-c2ccc(-c3ccc(C4(C(=O)O)CC4)cc3)cc2)c1C(O)c1cn(Cc2c(Cl)cccc2Cl)nn1 (centres unmarked) [Compound 1-72, 1-[4′-(4-{[1-(2,6-Dichloro-benzyl)-1H-[1,2,3]triazol-4-yl]-hydroxy-methyl}-3-methyl-isoxazol-5-yl)-biphenyl-4-yl]-cyclopropanecarboxylic acid] | 300 to 1000 nM |
| Cc1noc(-c2ccc(-c3ccc(C4(C(=O)O)CC4)cc3)cc2)c1Nc1cccc(Cc2ccccc2)n1 [Compound 1-73, 1-{4′-[4-(6-Benzyl-pyridin-2-ylamino)-3-methyl-isoxazol-5-yl]-biphenyl-4-yl}-cyclopropanecarboxylic acid] | < 300 nM |
| Cc1noc(-c2ccc(-c3ccc(C4(C(=O)O)CC4)cc3)cc2)c1Nc1cccc(-c2ccccc2)c1 [Compound 1-74, 1-{4′-[4-(Biphenyl-3-ylamino)-3-methyl-isoxazol-5-yl]-biphenyl-4-yl}-cyclopropanecarboxylic acid] | < 300 nM |
| Cc1noc(-c2ccc(-c3ccc(C4(C(=O)O)CC4)cc3)cc2)c1Nc1ccc(-c2ccccc2)cc1 [Compound 1-75, 1-{4′-[4-(Biphenyl-4-ylamino)-3-methyl-isoxazol-5-yl]-biphenyl-4-yl}-cyclopropanecarboxylic acid] | 300 to 1000 nM |

— patent publication US8664220B2, “Polycyclic compounds as lysophosphatidic acid receptor antagonists” (Amira Pharmaceuticals, Inc., priority 2009, dated 2014)
